Measurements from ChEMBL document CHEMBL5316308, “BET-HDAC Dual Inhibitors for Combinational Treatment of Breast Cancer and Concurrent Candidiasis” (J Med Chem, 2023).
In brackets after ≈: the same amount, converted by molar mass. Activity calls are given as the source filed them. The rule behind the calls is not given here.

What was measured:
[1] = system: Candida albicans; test: Antifungal activity FLC-resistant Candida albicans 0304103 assessed as hyphal formation at 32 ug/ml incubated for 3 hrs by inverse fluorescent microscopy; assay type: functional, organism-based; details: dose 32.0 µg/ml
[2] = system: Candida albicans; test: Antifungal activity against azole-resistant Candida albicans 0304103 assessed as fungal growth inhibition at 1 to 4 ug/ml measured upto 24 hrs by absorbance based assay; assay type: functional, organism-based; details: dose 1-4 µg/ml
[3] = system: Cryptococcus neoformans; test: Antifungal activity against Cryptococcus neoformans H99 assessed as fungal growth inhibition measured after 48 hrs in presence of SAHA by CLSI based micro-dilution broth method; assay type: functional
[4] = system: Candida albicans; test: Synergistic antifungal activity against azole-resistant Candida albicans 0304103 assessed as fungal growth inhibition measured after 48 hrs in presence of SAHA by CLSI based micro-dilution broth method; assay type: functional
[5] = system: MDA-MB-231; test: Induction of apoptosis in human MDA-MB-231 cells assessed as late apoptotic cells at 2.5 uM incubated for 48 hrs by Annexin V-FITC/PI staining based flow cytometry relative to control; assay type: functional
[6] = system: Candida albicans; test: Synergistic antifungal activity against Candida albicans 0304103 infected in ICR mouse assessed as decrease in kidney fungal load at 20 mg/kg, ip for 5 consecutive days; assay type: functional, organism-based; details: time 5.0 day
[7] = system: Candida albicans; test: microbe, parasite or virus in culture; assay type: functional; details: 0304103, time 48 hrs
Description: Synergistic antifungal activity against azole-resistant Candida albicans 0304103 assessed as fungal growth inhibition measured after 48 hrs in presence of FLC by CLSI based micro-dilution broth method

[8] = system: HL-60; test: Antiproliferative activity against human HL-60 cells assessed as cell growth inhibition incubated for 24 hrs in presence of SAHA by CCK-8 assay; assay type: functional, cell-based; details: HL-60, 24 h
[9] = system: HL-60; test: Antiproliferative activity against human HL-60 cells assessed as cell growth inhibition incubated for 24 hrs by CCK-8 assay; assay type: functional, cell-based; details: HL-60, 24 h
[10] = system: Candida albicans; test: microbe, parasite or virus in culture; assay type: functional; details: 0304103, time 48 hrs; remark: listed apart in the source
Description: Synergistic antifungal activity against azole-resistant Candida albicans 0304103 assessed as fungal growth inhibition measured after 48 hrs by CLSI based micro-dilution broth method

[11] = system: Candida albicans; test: Synergistic antifungal activity against azole-resistant Candida albicans 0304103 assessed as fractional inhibitory concentration index measured after 48 hrs in presence of FLC and SAHA by CLSI based micro-dilution broth method; assay type: functional
[12] = system: MDA-MB-231; test: Induction of apoptosis in human MDA-MB-231 cells assessed as late apoptotic cells at 10 uM incubated for 48 hrs by Annexin V-FITC/PI staining based flow cytometry relative to control; assay type: functional
[13] = system: HEL; test: Antiproliferative activity against human HEL cells assessed as cell growth inhibition incubated for 24 hrs by CCK-8 assay; assay type: functional, cell-based
[14] = system: Cryptococcus neoformans; test: Antifungal activity against Cryptococcus neoformans H99 assessed as fungal growth inhibition measured after 48 hrs by CLSI based micro-dilution broth method; assay type: functional
[15] = system: Candida albicans; assay type: functional, 0304103; details: time 48 hrs
Description: Synergistic antifungal activity against azole-resistant Candida albicans 0304103 assessed as fractional inhibitory concentration index measured after 48 hrs in presence of FLC by CLSI based micro-dilution broth method

[16] = system: HEL; test: Antiproliferative activity against human HEL cells assessed as cell growth inhibition incubated for 24 hrs in presence of SAHA by CCK-8 assay; assay type: functional, cell-based
[17] = system: K562; test: Antiproliferative activity against human K562 cells assessed as cell growth inhibition incubated for 24 hrs in presence of SAHA by CCK-8 assay; assay type: functional, cell-based; details: K562, 24 h
[18] = system: MDA-MB-231; test: Antiproliferative activity against human MDA-MB-231 cells assessed as cell growth inhibition incubated for 24 hrs by CCK-8 assay; assay type: functional, cell-based; details: MDA-MB-231, 24 h
[19] = system: Candida albicans; test: Synergistic antifungal activity against azole-resistant Candida albicans 0304103 assessed as fungal growth inhibition at 32 ug/ml measured upto 24 hrs in presence of FLC by absorbance based assay; assay type: functional, organism-based; details: dose 32.0 µg/ml
[20] = system: MDA-MB-231; test: Antiproliferative activity against human MDA-MB-231 cells assessed as cell growth inhibition incubated for 24 hrs in presence of SAHA by CCK-8 assay; assay type: functional, cell-based; details: MDA-MB-231, 24 h
[21] = system: Candida albicans; test: Synergistic antifungal activity against azole-resistant Candida albicans 0304103 assessed as fungal growth inhibition measured after 48 hrs in presence of FLC and SAHA by CLSI based micro-dilution broth method; assay type: functional
[22] = system: K562; test: Antiproliferative activity against human K562 cells assessed as cell growth inhibition incubated for 24 hrs by CCK-8 assay; assay type: functional, cell-based; details: K562, 24 h
[23] = system: MDA-MB-231; test: Induction of apoptosis in human MDA-MB-231 cells assessed as late apoptotic cells at 5 uM incubated for 48 hrs by Annexin V-FITC/PI staining based flow cytometry relative to control; assay type: functional
[24] = system: MDA-MB-231; test: Antitumor activity against human MDA-MB-231 cells xenografted in Balb/c nude mouse assessed as tumor growth inhibition at 10 mg/kg, ip qd for 21 consecutive days relative to control; assay type: functional; details: MDA-MB-231, 480 h, time 20 day, read-out: TGI
[25] = molecular target: Histone deacetylase 1 (Homo sapiens, UniProt Q13547); test: Inhibition of full-length recombinant human HDAC1 (1 to 482 residues) expressed in baculovirus infected insect cells using Ac-Leu-Gly-Lys(Ac)-AMC as substrate incubated for 30 mins by fluorescence based assay; set-up: species or system Insect cell
Histone deacetylase 1, sequence (Q13547 whole entry, the tested form may be a part): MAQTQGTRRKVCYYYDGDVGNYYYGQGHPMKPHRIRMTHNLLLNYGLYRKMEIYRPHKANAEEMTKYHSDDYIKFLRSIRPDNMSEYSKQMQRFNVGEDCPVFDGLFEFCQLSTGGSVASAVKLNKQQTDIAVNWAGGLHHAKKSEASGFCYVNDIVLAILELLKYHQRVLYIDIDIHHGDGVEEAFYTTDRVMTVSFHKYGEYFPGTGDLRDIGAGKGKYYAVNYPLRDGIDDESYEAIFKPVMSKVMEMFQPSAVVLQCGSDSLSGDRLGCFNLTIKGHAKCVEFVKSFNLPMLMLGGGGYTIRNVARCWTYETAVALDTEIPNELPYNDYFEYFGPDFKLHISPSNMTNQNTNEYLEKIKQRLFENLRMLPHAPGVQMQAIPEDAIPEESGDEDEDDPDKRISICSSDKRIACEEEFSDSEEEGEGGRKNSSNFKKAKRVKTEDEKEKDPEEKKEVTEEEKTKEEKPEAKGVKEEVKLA

[26] = molecular target: Bromodomain-containing protein 4 (Homo sapiens, UniProt O60885); test: Inhibition of recombinant BRD4 (unknown origin) incubated for 120 mins by TR-FRET assay relative to control; set-up: concentration or dose not given beside the values

SMILES	MIC80 [7]	IC50 [9]	MIC80 [10]	IC50 [13]	MIC80 [14]	fractional inhibitory concentration index (FICI) [15]	IC50 [18]	IC50 [22]	IC50 [25]	inhibition [26]	other results
OC(Cn1cncn1)(Cn1cncn1)c1ccc(F)cc1F	–	–	–	–	–	–	–	–	–	–	Activity [1]: Active; Activity [2]: inactive
COc1cc2c(cc1-c1c(C)noc1C)[nH]c1nc(C)nc(Nc3cc(C4CC4)nn3C)c12	16 mg/L (≈ 36.1 µM)	1.5 µM	> 64 mg/L	0.6 µM	32 mg/L (≈ 72.2 µM)	1.2	3.8 µM	2.3 µM	–	–	MIC80 [3]: 64 mg/L; MIC80 [4]: > 64 mg/L; Activity [5]: 8.25%; Activity [6]: inactive; IC50 [8]: 1.4 µM; fractional inhibitory concentration index (FICI) [11]: 0.26; Activity [12]: 16.93%; IC50 [16]: 0.4 µM; IC50 [17]: 0.00021 µM; Activity [19]: inactive; IC50 [20]: 1.6 µM; MIC80 [21]: 1 mg/L; Activity [23]: 9.99%; inhibition in vivo at 10 mg/kg [24]: 22%
COc1cc2c(cc1-c1c(C)noc1C)[nH]c1ncnc(Nc3ccc(/C=C/C(=O)NO)cc3)c12	8 mg/L (≈ 17 µM)	> 50 µM	> 64 mg/L	> 50 µM	16 mg/L (≈ 34 µM)	0.25	6.3 µM	11 µM	> 2 µM	67.5%	–
COc1cc2c(cc1-c1c(C)noc1C)[nH]c1nc(C)nc(NCCCCCC(=O)Nc3ccc(/C=C/C(=O)NO)cc3)c12	1 mg/L (≈ 1.67 µM)	3.1 µM	> 64 mg/L	> 50 µM	4 mg/L (≈ 6.69 µM)	0.078	16 µM	6 µM	1.1 µM	58.3%	–
COc1cc2c(cc1-c1c(C)noc1C)[nH]c1ncnc(NCCCCCC(=O)NO)c12	0.5 mg/L (≈ 1.14 µM)	> 50 µM	> 64 mg/L	13 µM	32 mg/L (≈ 73 µM)	0.5	> 50 µM	17 µM	0.203 µM	64.7%	–
O=C(CCCCCCC(=O)Nc1ccccc1)NO [VORINOSTAT]	–	–	–	–	–	–	–	–	–	–	Activity [5]: 16.91%; Activity [6]: inactive; Activity [12]: 27.19%; Activity [23]: 22.96%
COc1cc2c(cc1-c1c(C)noc1C)[nH]c1ncnc(NCCCCCC(=O)Nc3ccc(/C=C/C(=O)NO)cc3)c12	1 mg/L (≈ 1.71 µM)	3.8 µM	> 64 mg/L	8.9 µM	2 mg/L (≈ 3.43 µM)	0.26	14 µM	8.1 µM	0.252 µM	56.1%	–
COc1cc2c(cc1-c1c(C)noc1C)[nH]c1ncnc(Nc3ccc(C(=O)NO)cc3)c12	8 mg/L (≈ 18 µM)	6.7 µM	64 mg/L (≈ 144 µM)	> 50 µM	64 mg/L (≈ 144 µM)	0.25	19 µM	> 50 µM	0.974 µM	53.4%	–
COc1cc2c(cc1-c1c(C)noc1C)[nH]c1nc(C)nc(Nc3ccc(/C=C/C(=O)NO)cc3)c12	0.5 mg/L (≈ 1.03 µM)	> 50 µM	> 64 mg/L	> 50 µM	16 mg/L (≈ 33 µM)	0.13	11 µM	> 50 µM	1.2 µM	55.2%	–
COc1cc2c(cc1-c1c(C)noc1C)[nH]c1nc(C)nc(NCc3ccc(C(=O)NO)cc3)c12	2 mg/L (≈ 4.23 µM)	2.4 µM	> 64 mg/L	2.7 µM	64 mg/L (≈ 135 µM)	0.062	8.3 µM	1.8 µM	0.448 µM	97.5%	–
COc1cc2c(cc1-c1c(C)noc1C)[nH]c1nc(C)nc(NCCCCCCCC(=O)NO)c12	4 mg/L (≈ 8.32 µM)	> 50 µM	> 64 mg/L	3.3 µM	64 mg/L (≈ 133 µM)	0.12	7.8 µM	3 µM	0.2 µM	86.2%	–
COc1cc2c(cc1-c1c(C)noc1C)[nH]c1nc(C)nc(NCCCCCC(=O)Nc3ccc(C(=O)NO)cc3)c12	1 mg/L (≈ 1.75 µM)	6.5 µM	> 64 mg/L	> 50 µM	4 mg/L (≈ 7 µM)	0.047	16 µM	18 µM	0.086 µM	79.7%	–
COc1cc2c(cc1-c1c(C)noc1C)[nH]c1nc(C)nc(Nc3ccc(C(=O)NO)cc3)c12	0.5 mg/L (≈ 1.09 µM)	2.3 µM	> 64 mg/L	> 50 µM	> 64 mg/L	0.07	9.3 µM	> 50 µM	0.395 µM	79.8%	–
COc1cc2c(cc1-c1c(C)noc1C)[nH]c1ncnc(NCCCCC(=O)NO)c12	> 64 mg/L	> 50 µM	> 64 mg/L	> 50 µM	> 64 mg/L	>2	> 50 µM	> 50 µM	> 2 µM	11.1%	–
COc1cc2c(cc1-c1c(C)noc1C)[nH]c1nc(C)nc(NCCCCCC(=O)NO)c12	2 mg/L (≈ 4.42 µM)	7.9 µM	> 64 mg/L	7.1 µM	32 mg/L (≈ 70.7 µM)	0.16	> 50 µM	17 µM	0.124 µM	90.8%	–
COc1cc2c(cc1-c1c(C)noc1C)[nH]c1nc(C)nc(Nc3cccc(C(=O)NO)c3)c12	> 64 mg/L	> 50 µM	> 64 mg/L	> 50 µM	> 64 mg/L	>2	9.8 µM	3.8 µM	> 2 µM	14.8%	–
COc1cc2c(cc1-c1c(C)noc1C)[nH]c1ncnc(NCCCCCCCC(=O)NO)c12	2 mg/L (≈ 4.29 µM)	> 50 µM	> 64 mg/L	15 µM	2 mg/L (≈ 4.29 µM)	0.062	3.8 µM	8.9 µM	0.037 µM	85.8%	–
